In ChEMBL document CHEMBL1201862, “PubChem BioAssay data set” (2004):
The source made the active and inactive calls.

Columns and labels:
[1] = molecular target: T1, Methionyl-tRNA synthetase, putative (Trypanosoma brucei brucei, UniProt Q38C91); assay type: functional, Trypanosoma brucei brucei strain 927/4 GUTat10.1
[2] = Counterscreen for inhibitors of Trypanosoma brucei methionyl tRNA synthetase (MetRS): Luminescence-based cell-based high throughput dose response assay to identify compounds that are cytotoxic to Jurkat human T lymphocyte cells.; assay type: functional
[3] = molecular target: T1, Methionyl-tRNA synthetase, putative; assay type: functional, Trypanosoma brucei brucei strain 927/4 GUTat10.1; remark: listed apart in the source
[4] = inhibitors of firefly luciferase expression or activity, dose response, H4 neuroglioma cells, luminescence (AID 1990); assay type: functional, cell-based
[5] = tested on: Streptococcus sp. 'group A'; experiment: growth inhibition of control SK(-) GAS strain, dose response, counter-screen for streptokinase expression inhibitor project, luminescence, kanamycin, BacTiterGlo, confirmation (AID 1900); assay type: functional, organism-based
[6] = Luminescence Cell-Based Dose Response HTS to Identify Inhibitors of 5'UTR Stem-Loop Driven Prion Protein mRNA Translation in H4 Neuroglioblastoma Cells. [Related pubchem assays: 1827 (Project Summary), 1813 (Primary HTS)]; assay type: functional
[7] = inhibitors of SNCA 5'UTR-driven reporter translation, confirmation, H4 neuroglioma cells, luminescence (AID 1988); assay type: functional, cell-based
Streptokinase A = molecular target: T2, Streptokinase A (Streptococcus pyogenes serotype M1, UniProt P10520); experiment: S. pyogenes streptokinase expression inhibitors, potency, dose response, plasminogen activation absorbance, OD405 (AID 1914); assay type: functional, Streptococcus pyogenes M1 GAS;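 note: secreted streptokinase activity via plasminogen activation per viability signal from cell pellet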
T2 sequence (P10520 whole entry): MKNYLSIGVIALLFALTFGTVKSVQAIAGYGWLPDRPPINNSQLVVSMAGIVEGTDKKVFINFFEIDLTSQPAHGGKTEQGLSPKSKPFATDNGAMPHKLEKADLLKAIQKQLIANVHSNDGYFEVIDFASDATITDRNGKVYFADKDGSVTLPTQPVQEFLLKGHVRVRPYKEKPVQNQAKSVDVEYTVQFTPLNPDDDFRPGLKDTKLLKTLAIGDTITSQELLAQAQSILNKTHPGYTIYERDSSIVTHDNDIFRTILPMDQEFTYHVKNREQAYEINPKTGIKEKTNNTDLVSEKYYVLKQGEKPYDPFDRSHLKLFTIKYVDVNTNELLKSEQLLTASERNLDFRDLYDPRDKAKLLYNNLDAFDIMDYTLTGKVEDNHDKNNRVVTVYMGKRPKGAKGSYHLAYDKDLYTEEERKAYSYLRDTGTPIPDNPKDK

Streptococcus = experiment: Group A Streptococcus viability loss, dose response, counter-screen for streptokinase expression inhibitor project, luminescence, BacTiterGlo (AID 1915); assay type: functional, organism-based;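 note: potency for reduction of bacterial viability or growth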
INS1 = experiment: beta cell apoptosis inhibitors, cytokine rescue, dose response, luminescence, retest (AID 449756); assay type: functional, cell-based; details: Rattus norvegicus;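 note: cell death triggered by IL-1 beta plus TNF-alpha plus IFN-gamma mixture; protective hits raise ATP signal compared with cytokine alone wells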
[8] = Shn3 3'UTR reporter inhibitors, dose response, cell-based, Clone20 osteoblasts, firefly luciferase, cherry-picked (AID 624132); assay type: functional;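 note: firefly luciferase luminescence from reporter carrying the Shn3 3'UTR in osteoblasts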
[9] = HepG2 cell cytotoxicity, dose response, cytotoxicity control for Shn3 inhibitor project, CellTiter-Glo, cherry-picked (AID 624134); assay type: functional, cell-based
[10] = control 3'UTR Renilla luciferase suppression, dose response, counter-screen for Shn3 inhibitor project, cell-based, Clone20-Shn3RL, cherry-picked (AID 624133); assay type: functional
Fatty acid synthase [11] = molecular target: T3, Fatty acid synthase (Homo sapiens, UniProt P49327); experiment: FAS thioesterase domain inhibitors, dose response, biochemical, endpoint fluorescence intensity, uHTS hits (AID 624327); assay type: functional;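 note: fluorescence from hydrolysis of an O-methyl fluorescein acyl ester substrate by the enzyme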
[12] = molecular target: ATP-binding cassette sub-family B member 6 (Homo sapiens, UniProt Q9NP58); experiment: ABCB6 transporter inhibitors, porphyrin accumulation, dose response, flow cytometry, K562-ABCB6 cells, cherry pick 02 (AID 624487); assay type: functional; details: read-out: EC50_MICROM
Fatty acid synthase [13] = molecular target: T3, Fatty acid synthase; experiment: FAS thioesterase domain inhibitors, dose response, biochemical, kinetic fluorescence intensity (AID 624326); assay type: functional;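 note: rate of fluorescence rise from hydrolysis of a fluorogenic O-methyl fluorescein ester substrate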
Paired box protein Pax-8 = Paired box protein Pax-8 (Homo sapiens, UniProt Q06710); experiment: inhibitors of PAX8-driven TPO luciferase reporter, dose response, RMG-I cells, cherry-pick (AID 687027); assay type: functional, cell-based;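 note: luciferase reporter driven by Pax8 target thyroperoxidase promoter measured by SteadyGlo luminescence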
[14] = non-specific cell cytotoxicity, dose response, cytotoxicity control for PAX8 inhibitor project, plate reader, dry powder samples (AID 743021); assay type: functional, cell-based
Mu-type opioid receptor = Mu-type opioid receptor (Homo sapiens, UniProt P35372); assay type: functional, cell-based;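 note: U2OS cells with beta-arrestin recruitment to OPRM1 by beta-gal complementation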
[15] = molecular target: 5-hydroxytryptamine receptor 2A (Mus musculus, UniProt P35363); assay type: functional, cell-based;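 note: CHO-K1 cells with tagged receptor and beta-arrestin; agonist potency measured as compound-induced activation of the receptor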
Beta-lactamase [16] = molecular target: Beta-lactamase (Salmonella choleraesuis (strain SC-B67), UniProt Q5J463); experiment: Epi-absorbance-based counterscreen for selective VIM-2 inhibitors: dose response biochemical high throughput screening assay to identify inhibitors of TEM-1 serine-beta-lactamase.
Beta-lactamase [17] = molecular target: T4, Beta-lactamase (Pseudomonas aeruginosa, UniProt Q79MP6); experiment: IMP-1 metallo-beta-lactamase inhibitors, dose response, selectivity assay for VIM-2 inhibitor project, biochemical, epi-absorbance (AID 1920)
Beta-lactamase [18] = molecular target: T4, Beta-lactamase; experiment: […] counterscreen for selective VIM-2 inhibitors: dose response biochemical high throughput screening assay to identify inhibitors of IMP-1 metallo-beta-lactamase.

T3 sequence (P49327 whole entry, the tested form may be a part): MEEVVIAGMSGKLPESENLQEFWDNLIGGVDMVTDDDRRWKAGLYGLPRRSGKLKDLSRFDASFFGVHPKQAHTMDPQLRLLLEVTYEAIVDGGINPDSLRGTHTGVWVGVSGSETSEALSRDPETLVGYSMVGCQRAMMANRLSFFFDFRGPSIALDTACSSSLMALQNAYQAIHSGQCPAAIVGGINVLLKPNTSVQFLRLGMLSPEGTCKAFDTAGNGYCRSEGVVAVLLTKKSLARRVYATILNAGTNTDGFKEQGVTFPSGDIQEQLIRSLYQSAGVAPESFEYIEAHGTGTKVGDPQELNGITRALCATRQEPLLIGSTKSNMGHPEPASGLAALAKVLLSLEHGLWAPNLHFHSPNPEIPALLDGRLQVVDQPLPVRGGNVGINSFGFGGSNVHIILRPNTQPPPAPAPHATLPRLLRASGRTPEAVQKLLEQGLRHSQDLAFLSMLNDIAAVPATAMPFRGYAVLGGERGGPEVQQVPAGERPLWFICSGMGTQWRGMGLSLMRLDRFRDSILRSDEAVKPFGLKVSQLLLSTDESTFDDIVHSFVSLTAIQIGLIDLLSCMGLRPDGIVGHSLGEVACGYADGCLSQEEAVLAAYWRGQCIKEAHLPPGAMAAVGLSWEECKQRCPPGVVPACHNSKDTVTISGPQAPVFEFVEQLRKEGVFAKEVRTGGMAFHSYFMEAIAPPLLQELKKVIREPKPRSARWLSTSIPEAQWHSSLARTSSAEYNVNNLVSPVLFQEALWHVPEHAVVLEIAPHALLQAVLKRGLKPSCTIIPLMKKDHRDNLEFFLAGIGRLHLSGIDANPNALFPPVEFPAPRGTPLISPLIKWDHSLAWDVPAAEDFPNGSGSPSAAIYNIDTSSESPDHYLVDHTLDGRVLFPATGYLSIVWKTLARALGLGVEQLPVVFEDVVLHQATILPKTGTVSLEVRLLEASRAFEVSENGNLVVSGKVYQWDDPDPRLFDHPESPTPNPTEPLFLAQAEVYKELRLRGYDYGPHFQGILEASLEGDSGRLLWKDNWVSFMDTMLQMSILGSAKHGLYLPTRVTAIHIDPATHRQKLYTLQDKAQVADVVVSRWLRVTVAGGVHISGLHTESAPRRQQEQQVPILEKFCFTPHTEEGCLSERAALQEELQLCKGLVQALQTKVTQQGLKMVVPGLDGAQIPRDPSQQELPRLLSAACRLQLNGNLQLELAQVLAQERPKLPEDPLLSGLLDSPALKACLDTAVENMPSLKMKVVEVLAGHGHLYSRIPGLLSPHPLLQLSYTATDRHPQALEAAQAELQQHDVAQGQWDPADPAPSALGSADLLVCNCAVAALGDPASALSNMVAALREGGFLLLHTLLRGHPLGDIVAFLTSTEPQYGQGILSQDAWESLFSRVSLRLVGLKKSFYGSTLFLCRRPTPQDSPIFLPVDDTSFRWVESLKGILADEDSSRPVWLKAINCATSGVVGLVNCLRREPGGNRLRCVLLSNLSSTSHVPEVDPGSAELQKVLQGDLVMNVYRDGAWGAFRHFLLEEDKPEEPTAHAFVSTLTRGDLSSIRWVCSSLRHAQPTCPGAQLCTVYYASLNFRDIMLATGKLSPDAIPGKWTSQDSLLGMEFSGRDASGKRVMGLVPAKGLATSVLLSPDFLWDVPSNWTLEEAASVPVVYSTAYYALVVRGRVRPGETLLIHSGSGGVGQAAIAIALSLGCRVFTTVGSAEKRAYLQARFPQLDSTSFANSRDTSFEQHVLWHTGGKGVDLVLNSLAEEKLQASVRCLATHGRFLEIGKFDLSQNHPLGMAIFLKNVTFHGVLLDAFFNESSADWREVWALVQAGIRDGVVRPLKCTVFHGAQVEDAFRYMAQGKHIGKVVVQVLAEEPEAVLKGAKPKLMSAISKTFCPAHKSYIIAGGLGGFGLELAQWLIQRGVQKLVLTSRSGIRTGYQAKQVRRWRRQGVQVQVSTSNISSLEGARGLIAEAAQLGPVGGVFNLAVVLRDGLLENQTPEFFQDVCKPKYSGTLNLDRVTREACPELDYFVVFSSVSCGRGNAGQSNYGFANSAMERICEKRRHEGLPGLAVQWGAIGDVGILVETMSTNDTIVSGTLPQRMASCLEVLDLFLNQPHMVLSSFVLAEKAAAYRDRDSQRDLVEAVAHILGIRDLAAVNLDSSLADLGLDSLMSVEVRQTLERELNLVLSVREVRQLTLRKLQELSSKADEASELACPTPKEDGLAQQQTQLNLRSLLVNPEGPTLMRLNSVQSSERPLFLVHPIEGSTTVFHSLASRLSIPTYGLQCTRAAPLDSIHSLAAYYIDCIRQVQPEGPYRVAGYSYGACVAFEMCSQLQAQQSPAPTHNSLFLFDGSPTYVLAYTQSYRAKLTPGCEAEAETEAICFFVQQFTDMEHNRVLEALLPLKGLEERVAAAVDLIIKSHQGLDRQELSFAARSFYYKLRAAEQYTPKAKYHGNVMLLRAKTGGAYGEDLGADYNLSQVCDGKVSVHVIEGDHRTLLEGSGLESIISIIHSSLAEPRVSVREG
T4 sequence (Q79MP6 whole entry): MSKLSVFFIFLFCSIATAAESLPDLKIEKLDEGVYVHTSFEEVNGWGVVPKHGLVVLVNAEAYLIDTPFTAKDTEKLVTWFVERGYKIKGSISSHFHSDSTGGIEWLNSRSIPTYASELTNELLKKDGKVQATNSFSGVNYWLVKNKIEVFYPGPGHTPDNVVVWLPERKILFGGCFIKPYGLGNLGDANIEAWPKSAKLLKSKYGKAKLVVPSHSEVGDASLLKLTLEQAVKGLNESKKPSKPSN
T1 sequence (Q38C91 whole entry): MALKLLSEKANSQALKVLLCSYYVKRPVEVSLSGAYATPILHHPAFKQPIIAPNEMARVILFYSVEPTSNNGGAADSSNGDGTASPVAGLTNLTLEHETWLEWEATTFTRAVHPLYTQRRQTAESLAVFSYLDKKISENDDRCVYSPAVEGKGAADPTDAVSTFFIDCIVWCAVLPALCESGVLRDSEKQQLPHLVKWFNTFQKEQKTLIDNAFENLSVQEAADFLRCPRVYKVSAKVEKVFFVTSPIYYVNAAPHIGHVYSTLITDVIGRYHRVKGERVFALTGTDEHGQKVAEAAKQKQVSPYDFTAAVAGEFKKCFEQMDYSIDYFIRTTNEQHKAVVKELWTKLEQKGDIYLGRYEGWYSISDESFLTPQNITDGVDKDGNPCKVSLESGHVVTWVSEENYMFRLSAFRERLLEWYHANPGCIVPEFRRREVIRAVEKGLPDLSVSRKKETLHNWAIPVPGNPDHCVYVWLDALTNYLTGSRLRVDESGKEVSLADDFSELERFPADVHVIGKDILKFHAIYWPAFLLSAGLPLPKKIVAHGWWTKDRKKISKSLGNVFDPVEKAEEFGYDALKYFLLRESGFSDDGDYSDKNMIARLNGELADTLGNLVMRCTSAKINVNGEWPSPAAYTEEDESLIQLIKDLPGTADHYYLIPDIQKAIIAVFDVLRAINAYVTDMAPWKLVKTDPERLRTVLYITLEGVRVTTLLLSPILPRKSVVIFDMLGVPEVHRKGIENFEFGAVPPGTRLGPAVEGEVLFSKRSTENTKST
Chain of Mu-type opioid receptor (P35372 whole entry): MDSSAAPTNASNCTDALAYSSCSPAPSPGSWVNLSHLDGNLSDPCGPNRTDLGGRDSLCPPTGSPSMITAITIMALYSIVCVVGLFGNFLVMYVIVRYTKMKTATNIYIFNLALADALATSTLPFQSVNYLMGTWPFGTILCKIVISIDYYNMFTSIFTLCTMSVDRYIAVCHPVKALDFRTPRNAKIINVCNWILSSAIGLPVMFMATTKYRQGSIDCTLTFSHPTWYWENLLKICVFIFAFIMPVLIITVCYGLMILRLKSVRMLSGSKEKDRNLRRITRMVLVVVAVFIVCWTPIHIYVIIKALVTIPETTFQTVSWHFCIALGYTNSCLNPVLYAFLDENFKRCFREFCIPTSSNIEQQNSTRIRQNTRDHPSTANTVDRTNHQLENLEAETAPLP
Chain of Paired box protein Pax-8 (Q06710 whole entry): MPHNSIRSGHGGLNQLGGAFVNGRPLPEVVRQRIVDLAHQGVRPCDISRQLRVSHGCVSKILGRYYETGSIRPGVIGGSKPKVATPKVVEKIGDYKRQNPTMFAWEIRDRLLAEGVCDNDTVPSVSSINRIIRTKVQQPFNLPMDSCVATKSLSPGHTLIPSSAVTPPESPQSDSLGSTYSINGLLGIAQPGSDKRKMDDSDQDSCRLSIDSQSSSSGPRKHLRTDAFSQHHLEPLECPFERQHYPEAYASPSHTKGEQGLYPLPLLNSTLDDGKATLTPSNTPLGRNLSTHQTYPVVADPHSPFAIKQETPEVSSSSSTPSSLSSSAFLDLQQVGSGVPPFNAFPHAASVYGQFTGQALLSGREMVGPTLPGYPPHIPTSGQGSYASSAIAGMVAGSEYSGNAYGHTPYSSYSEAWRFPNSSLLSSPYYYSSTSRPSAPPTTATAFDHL
Chain of 5-hydroxytryptamine receptor 2A (P35363 whole entry): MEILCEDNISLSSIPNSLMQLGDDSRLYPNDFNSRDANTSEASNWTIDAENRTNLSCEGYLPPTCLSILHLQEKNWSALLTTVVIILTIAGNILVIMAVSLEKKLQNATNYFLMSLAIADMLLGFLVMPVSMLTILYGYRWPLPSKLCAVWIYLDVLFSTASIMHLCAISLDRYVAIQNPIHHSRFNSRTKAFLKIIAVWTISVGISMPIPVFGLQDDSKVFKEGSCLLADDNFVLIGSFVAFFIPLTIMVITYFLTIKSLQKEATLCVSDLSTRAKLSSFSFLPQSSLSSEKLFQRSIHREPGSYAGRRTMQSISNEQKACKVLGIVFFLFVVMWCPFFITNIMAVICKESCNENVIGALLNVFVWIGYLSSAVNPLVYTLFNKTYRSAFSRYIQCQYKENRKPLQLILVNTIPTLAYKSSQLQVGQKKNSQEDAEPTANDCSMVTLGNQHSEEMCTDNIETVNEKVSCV

## Cc1cccc(NC(=O)CCNC(=O)c2ccc(Br)cc2)c1
[1]
  IC50: 5.8 µM (active)
[2]
  IC50: 83.3 µM (inactive)
[3]
  IC50: 12.9 µM (inactive)

## CCOc1ccccc1NC(=O)c1nc(S(=O)(=O)Cc2cccc(C)c2)ncc1Cl
[4]
  EC50: > 120 µM (not active)
[5]
  EC50: 12 µM (active)
[6]
  EC50: 10.9 µM (active)
[7]
  EC50: 8.12 µM (active)
Streptokinase A
  EC50: 1.28 µM (active)
Streptococcus
  EC50: 15.7 µM (active)
INS1
  AC50: 5.15 µM (active)
[8]
  AC50: 0.324 µM (active)
[9]
  AC50: 18.8 µM (active)
[10]
  AC50: 6.38 µM (active)
Fatty acid synthase [11]
  IC50: 11.5 µM (active)
[12]
  EC50: 11.5 µM (active)
Fatty acid synthase [13]
  IC50: 3.06 µM (active)
Paired box protein Pax-8
  AC50: 7.71 µM (active)
[14]
  AC50: 24.4 µM (active)

## O=C(NCCCN1CCN(c2ccccc2F)CC1)C1CCC(=O)N1C1CCCCC1 (stereo not drawn)
Mu-type opioid receptor
  EC50: 92.5 µM (inactive)
[15]
  EC50: 76.1 µM (inactive)

## NC(=O)SCC(=O)Nc1ccccc1C(=O)O
Beta-lactamase [16]
  IC50: > 59.6 µM (inactive)
Beta-lactamase [17]
  IC50: > 59.6 µM (inactive)
Beta-lactamase [18]
  IC50: 24.1 µM (inactive)
